# Measured values as given in patent US8455421B2, “Compositions and methods for the removal of chewing gum residues from substrates” (Expelliere Int Ltd, priority 2008, dated 2013).
# Test system: laccase from Trametes versicolor (LTV)
# Experiment: Compatibility of laccase with ionic liquids (oxidation of catechol to 1,2-benzoquinone)
# Type: biochemical
# Details: laccase 25 mg/L, sodium phosphate-citrate buffer 25 mM, pH 4.5, 22° C., 405 nm
# Description: An important consideration in preparing ionic liquids comprising enzymes for use in the methods of the present invention is the activity of the enzyme in the presence of the ionic liquid. The compatibility of enzymes and ionic liquids can be easily determined by the skilled person by standard laboratory techniques. One suitable technique uses high throughput screening of ionic liquids and enzymes using multiple well plates. A standard enzyme-catalysed transformation may be used to analyse the activity of a particular enzyme in the presence of various ionic liquids at various concentrations. One suitable reaction is the oxidation of catechol to 1,2-benzoquinone. The progress of this reaction can be monitored visually by the dark colour of 1,2-benzoquinone and spectrally, for instance using UV-Vis spectrometry. This transformation can be represented by the following reaction scheme, in which laccase is exemplified:
# Compatibility of enzymes with ionic liquid compositions was determined by high throughput screening on multiple well plates of various enzymes against various concentrations of ionic liquids in water. The oxidation of catechol to 1,2-benzoquinone was measured in aqueous sodium phosphate-citrate buffer solutions (25 mM) containing laccase (25 mgL^−1) and an ionic liquid, premixed at pH 6.0 for laccase from Agaricus bisporus (LAB) and at pH 4.5 for laccase from Trametes versicolor (LTV). The pH was verified by diluting the final reaction mixture in deionised water and measuring the pH using a pH meter. The rate of 1,2-benzoquinone formation was measured using an Agilent spectrophotometer at 405 nm and 22° C. using an extinction coefficient of 760 M^−1 cm^−1. The activity was measured over a range of ionic liquid concentrations from 0 to 99.4%, since the laccases were not soluble in the pure ionic liquids, but could be dissolved when the ionic liquids were mixed with 0.6% of buffer solution containing the enzyme.
row,Concentration of ionic liquid in water that inactivates Laccase (LTV) [%],SMILES
1,70,"CCCC[N+](C)(C)CC.CCOS(=O)(=O)[O-] [[N4,2,1,1]^+[EtOSO3]^−]"
2,90,"CCCCCCCC[N+](C)(C)CCCC.O=[N+]([O-])[O-] [[N8,4,1,1]^+[NO3]^−]"
3,30,CCOS(=O)(=O)[O-].CCn1cc[n+](C)c1 [[emim]^+[EtOSO3]^−]
4,90,"CCCCC(CC)COC(=O)CC(C(=O)OCC(CC)CCCC)S(=O)(=O)[O-].CCCCn1cc[n+](C)c1 (stereo not drawn) [[bmim][docusate], 1-methyl-3-butylimidazolium docusate]"
5,90,CC(O)C(=O)[O-].CCCCn1cc[n+](C)c1 [[bmim]^+[CH3CH(OH)CO2]^−]
6,90,CCCCC(CC)COC(=O)CC(C(=O)OCC(CC)CCCC)S(=O)(=O)[O-].CCn1cc[n+](C)c1 (stereo not drawn) [[emim][docusate]]
7,30,"CCOS(=O)(=O)[O-].C[N+](C)(C)CCCO [[N1,1,1,3OH]^+[EtOSO3]^−]"
8,90,CCCCC(CC)COC(=O)CC(C(=O)OCC(CC)CCCC)S(=O)(=O)[O-].CCCC[N+]1(C)CCCC1 (stereo not drawn) [[bmpyr]^+[docusate]^−]
9,30,"CCOS(=O)(=O)[O-].CC[N+](C)(C)CCO [[N2,1,1,2OH]^+[EtOSO3]^−]"
